Key:
[1] = system: pro-inflammatory cytokine IFN-γ secretion by mouse T cells stimulated by CD3/CD28 monoclonal antibodies; assay: Inhibition of IFN-γ secretion by mouse T cells stimulated by CD3/CD28 monoclonal antibodies (ELISA); type: cell-based; conditions: T-cell, 48 h, C57BL/6 mouse T cells, CD3/CD28 mAb stimulation; for inhibition at 20 µM: read-out: Inhibitory rate (%, 20 μM)
Procedure: CD3, CD28 monoclonal antibodies, and kit for IFN-γ detection were purchased from BD Bioscience, Cell Counting Kit-8 (CCK-8) was purchased from MeilunBio®, and RPMI-1640 medium and fetal bovine serum were purchased from Biological Industries.
Preparation of samples to be tested: the 12 compounds of Example 1 were dissolved in DMSO, respectively to prepare 20 mM stock solutions.
Splenocytes were aseptically isolated from 6-8 week old female C57BL/6 mice, and T cells were isolated using a nylon wool column method. The T cells were then inoculated (4×10^5 cells/well) in a 96-well plate (which was coated with 5 μg/mL of CD3 monoclonal antibody). At the same time, a prepared compound solution of 40 μM, 20 μM, 10 μM, 5 μM, 2.5 μM, or 1.25 μM along with a 2 μg/mL solution of CD28 monoclonal antibody were added into each group, respectively, which were cultured in a 37° C./5% CO2 incubator. After 48 h, the supernatant of the cells was collected and the IFN-γ secretion in the supernatant was detected by an Enzyme-Linked Immuno-Sorbent Assay (ELISA); 10 μL of CCK-8 solution was added into each well, and OD450 was measured after incubation at 37° C. for 4 h to evaluate cell proliferation. […] The inhibitory activity of the compounds on IFN-γ was calculated, and the half-maximal inhibitory concentration (IC50) was analyzed using GraphPadPrism software.

[2] = system: imiquimod-induced psoriasis mice; assay: In vivo anti-psoriasis activity test on sesterterpenoid compound 6 (imiquimod-induced psoriasis mouse model); conditions: 25 and 50 mg/kg intraperitoneal injection, day 1 to 6
Procedure: Establishment and pharmacodynamic study of a mouse model of imiquimod-induced psoriasis: the mice were randomly divided into a control group, a model group, a methotrexate (MTX) treatment (1 mg/kg) group, and Leucosceptrum canum sesterterpenoid treatment (50 mg/kg, 150 mg/kg, 450 mg/kg) groups, with 6 mice in each group. The mice were depilated on their backs before the experiment, and 62.5 mg of […] imiquimod cream was evenly applied on the backs of mice while an equivalent amount of Vaseline was applied on the backs of mice in the normal control group from the 1st day, the application was performed once a day for 6 d. From the 1st day 1 to the 6th day, each treatment group was given the drug by gavage. During the experiment, the mice were weighed and scored for the Psoriasis Area and Severity Index (PASI) according to the following criteria: 0 points, normal skin without erythema and scales; 1 point, mild erythema, a few fine scales, and the skin at the lesion being slightly higher than normal skin; 2 points, moderate red plaques, the surface of the lesions being covered with scales, and the lesions being flaky or moderately raised; 3 points, severe dark red plaques, almost all the lesions being covered with thick scales or obvious lesions; 4 points, extremely severe and dark red plaques, all lesions being covered with highly thick layered scales, and the thickening and protrusion of the lesions being extremely obvious. After the experiment, the back skin of the mice was taken to make pathological sections. The levels of pro-inflammatory cytokines IFN-γ and IL-17A in mouse serum were detected by ELISA.
A method for establishing the imiquimod-induced psoriasis mouse model was the same as that in Example 4. The mice were randomly divided into a control group, a model group, a methotrexate (MTX) treatment group (1 mg/kg), and compound 6 treatment groups (25 and 50 mg/kg), with 6 mice in each group. From the 1st day to the 6th day, drugs were given to each treatment group by intraperitoneal injection. During the experiment, the mice were weighed and scored for PASI. After the experiment, the back skin of the mice was taken to make pathological sections. The levels of pro-inflammatory cytokines IFN-γ and IL-17A in mouse serum were detected by ELISA.

Row | SMILES | inhibition at 20 µM [1] [%] | further results
1 | CC(C)=C[C@]1(O)C(=O)[C@@H](C)[C@@H]2CC[C@H](C)[C@H]2[C@]1(O)C(=O)[C@H](C)CC[C@@H]1OC(=O)C=C1C [Compound 1] | 32.1 ± 5.46 | 
2 | CC(C)=C[C@]1(O)C(=O)[C@@H](C)[C@@H]2CC[C@H](C)[C@H]2[C@@]1(O)C(=O)[C@H](C)CC[C@@H]1OC(=O)C=C1C [Compound 2] | 51.3 ± 7.1 | 
3 | CC(C)=C[C@]1(O)C(=O)[C@@H](C)[C@@H]2CC[C@H](C)[C@H]2[C@@]1(O)C(=O)[C@H](C)CCc1occc1C [Compound 3] | 30.5 ± 6.55 | 
4 | CC[C@@H](C)C(=O)[C@@]1(O)[C@H]2[C@@H](CC[C@@H]2C)[C@H](C)[C@]2(O)OCC(C)=C[C@@]21O [Compound 4] | 26.7 ± 5.85 | 
5 | CC1=C[C@@]2(O)[C@@](O)(OC1)[C@@H](C)[C@@H]1CC[C@H](C)[C@H]1[C@]2(O)C(=O)[C@H](C)CCO [Compound 5] | 10.7 ± 2.74 | 
6 | CC1=C[C@@]2(O)[C@@](O)(OC1)[C@@H](C)[C@@H]1CC[C@H](C)[C@H]1[C@]2(O)C(=O)[C@H](C)CCc1occc1C [Compound 6] | 66.8 ± 3.02 | IC50 [1]: 5.74 µM; level of IFN-γ in the serum of psoriasis mice (FIG. 10A-10B, ELISA) [2]: significantly reduces; level of IL-17A in the serum of psoriasis mice (FIG. 10A-10B, ELISA) [2]: significantly reduces; pathological damage of the skin tissue of psoriasis mice (FIG. 9, HE staining) [2]: significantly inhibits; symptoms of psoriasis in mice (FIG. 8) [2]: significantly improves
7 | CC1=C[C@@]2(O)[C@@](O)(OC1)[C@@H](C)[C@@H]1CC[C@H](C)[C@H]1[C@]2(O)C(=O)[C@H](C)CC(=O)c1occc1C [Compound 7] | 36.2 ± 8.27 | 
8 | CC1=C[C@@]2(O)[C@@](O)(OC1)[C@@H](C)[C@@H]1CC[C@H](C)[C@H]1[C@]2(O)C(=O)[C@H](C)CCC1=C(C)CC(=O)O1 [Compound 8] | 43.1 ± 7.35 | 
9 | COC1(CC[C@@H](C)C(=O)[C@@]2(O)[C@H]3[C@@H](CC[C@@H]3C)[C@H](C)[C@]3(O)OCC(C)=C[C@@]32O)OC(=O)C=C1C (some centres unmarked) [Compound 9] | 39.6 ± 7.93 | 
10 | COC1C=C(C)C(CC[C@@H](C)C(=O)[C@@]2(O)[C@H]3[C@@H](CC[C@@H]3C)[C@H](C)[C@]3(O)OCC(C)=C[C@@]32O)(OC)O1 (some centres unmarked) [Compound 10] | 10.4 ± 3.02 | 
11 | CC1=C[C@@]2(O)[C@@](O)(OC1)[C@@H](C)[C@@H]1CC[C@H](C)[C@H]1[C@@]2(O)C(=O)[C@H](C)C[C@H]1C(=O)C(C)=C[C@@H]1O [Compound 11] | 23.4 ± 1.24 | 
12 | CC1=C[C@@]2(O)[C@@](O)(OC1)[C@@H](C)[C@@H]1CC[C@H](C)[C@H]1[C@@]2(O)C(=O)[C@@H](C)C[C@H]1C(=O)C(C)=C[C@@H]1O [Compound 12] | 33.8 ± 2.27 | 

From patent US20260078110A1, “SESTERTERPENOID COMPOUNDS AND EXTRACT L01 OF LEUCOSCEPTRUM CANUM, AND USE THEREOF IN TREATMENT OF PSORIASIS” (Kunming Institute of Botany, CAS, priority 2023, published 2026)
